Measured values published in ChEMBL document CHEMBL4184165, “Unique arginine array improves cytosolic localization of hydrocarbon-stapled peptides” (Bioorg Med Chem, 2018).
Where a SMILES comes first, the peptide text is derived from it. Bridges are numbered along the chain shown (N, C = ends). [ ]: non-standard residue; d: D form. The star is where a group is joined. X1 = CCN(CC)c1ccc2c(-c3ccc(S(=O)(=O)*)cc3S(=O)(=O)[O-])c3ccc(=[N+](CC)CC)cc-3oc2c1; R8 = C=CCCCCCC[C@@](C)(N)C(=O)O; S5 = C=CCCC[C@](C)(N)C(=O)O; βAla = NCCC(=O)O

Columns and labels:
SJSA-1 = test: Cytotoxicity in human SJSA1 cells over expressing human DM2 after 24 hrs by CellTiter-Glo assay; type: functional, cell-based; conditions: SJSA-1, 24 h
[1] = Drug uptake in cytosol of human HeLa cells at 500 nM after 30 mins by FCS analysis; type: ADME, subcellular; conditions: 0.5 h, 0.5 µM
[2] = Drug uptake in cytosol of human HeLa cells at 500 nM after 30 mins by FCS analysis relative to control; type: ADME, subcellular; conditions: 0.5 h, 0.5 µM

Drug uptake [2] [%] | SMILES | EC50 (SJSA-1) [µM] | Drug uptake [1] [nM]
– | CC(=O)N[C@@H](CCCNC(=N)N)C(=O)N[C@@H](CO)C(=O)N[C@@H](CCC(N)=O)C(=O)N[C@@H](CCC(=O)O)C(=O)N[C@@H](CCCNC(=N)N)C(=O)N[C@@H](Cc1ccccc1)C(=O)N[C@]1(C)CCCCCC/C=C/CCC[C@@](C)(C(=O)N[C@@H](CCCNC(=N)N)C(=O)N[C@@H](CCCNC(=N)N)C(N)=O)NC(=O)[C@H](CC(C)C)NC(=O)[C@H](CCCNC(=N)N)NC(=O)[C@H](CCCCN)NC(=O)[C@H](Cc2c[nH]c3ccccc23)NC(=O)[C@H](CC(C)C)NC(=O)[C@H](CC(=O)O)NC1=O (Ac-RSQERF[R8]DLWKRL[S5]RR-NH2; staple (E) 7-14) | 7.7 | –
– | CC(=O)N[C@@H](CCCNC(=N)N)C(=O)N[C@@H](CCCNC(=N)N)C(=O)N[C@@H](CCCNC(=N)N)C(=O)N[C@@H](CCCNC(=N)N)C(=O)N[C@@H](CCCNC(=N)N)C(=O)N[C@@H](Cc1ccccc1)C(=O)N[C@]1(C)CCCCCC/C=C/CCC[C@@](C)(C(=O)N[C@@H](CCC(=O)O)C(=O)N[C@@H](CC(N)=O)C(N)=O)NC(=O)[C@H](CC(C)C)NC(=O)[C@H](CC(C)C)NC(=O)[C@H](CCCCN)NC(=O)[C@H](Cc2c[nH]c3ccccc23)NC(=O)[C@H](CC(C)C)NC(=O)[C@H](CC(=O)O)NC1=O (Ac-RRRRRF[R8]DLWKLL[S5]EN-NH2; staple (E) 7-14) | 1.6 | –
– | CC(=O)N[C@@H](CCCNC(=N)N)C(=O)N[C@@H](CO)C(=O)N[C@@H](CCC(N)=O)C(=O)N[C@@H](CCCNC(=N)N)C(=O)N[C@@H](CCCNC(=N)N)C(=O)N[C@@H](Cc1ccccc1)C(=O)N[C@]1(C)CCCCCC/C=C/CCC[C@@](C)(C(=O)N[C@@H](CCC(=O)O)C(=O)N[C@@H](CC(N)=O)C(N)=O)NC(=O)[C@H](CC(C)C)NC(=O)[C@H](CC(C)C)NC(=O)[C@H](CCCNC(=N)N)NC(=O)[C@H](Cc2c[nH]c3ccccc23)NC(=O)[C@H](CC(=O)O)NC(=O)[C@H](CCCNC(=N)N)NC1=O (Ac-RSQRRF[R8]RDWRLL[S5]EN-NH2; staple (E) 7-14) | 1.9 | –
– | CC(=O)N[C@@H](CC(C)C)C(=O)N[C@@H](CCCNC(=N)N)C(=O)N[C@@H](CCCNC(=N)N)C(=O)N[C@@H](CCC(=O)O)C(=O)N[C@H](C(=O)N[C@@H](Cc1ccccc1)C(=O)N[C@]1(C)CCCCCC/C=C/CCC[C@@](C)(C(=O)N[C@@H](CCCNC(=N)N)C(=O)N[C@@H](CC(N)=O)C(N)=O)NC(=O)[C@H](CC(C)C)NC(=O)[C@H](CCCNC(=N)N)NC(=O)[C@H](CCCCN)NC(=O)[C@H](Cc2c[nH]c3ccccc23)NC(=O)[C@H](CCCNC(=N)N)NC(=O)[C@H](CC(=O)O)NC1=O)[C@@H](C)O (Ac-LRRETF[R8]DRWKRL[S5]RN-NH2; staple (E) 7-14) | 7.7 | –
– | CC(=O)N[C@@H](CC(C)C)C(=O)N[C@@H](CO)C(=O)N[C@@H](CCC(N)=O)C(=O)N[C@@H](CCC(=O)O)C(=O)N[C@H](C(=O)N[C@@H](Cc1ccccc1)C(=O)N[C@]1(C)CCCCCC/C=C/CCC[C@@](C)(C(=O)N[C@@H](CCCNC(=N)N)C(=O)N[C@@H](CCCNC(=N)N)C(N)=O)NC(=O)[C@H](CC(C)C)NC(=O)[C@H](CCCNC(=N)N)NC(=O)[C@H](CCCNC(=N)N)NC(=O)[C@H](Cc2c[nH]c3ccccc23)NC(=O)[C@H](CC(C)C)NC(=O)[C@H](CCCNC(=N)N)NC1=O)[C@@H](C)O (Ac-LSQETF[R8]RLWRRL[S5]RR-NH2; staple (E) 7-14) | 1.9 | –
– | COc1ccc(C2=N[C@@H](c3ccc(Cl)cc3)[C@@H](c3ccc(Cl)cc3)N2C(=O)N2CCNC(=O)C2)c(OC(C)C)c1 [NUTLIN-3] | 22.8 | –
– | CC(=O)N[C@@H](CCC(N)=O)C(=O)N[C@@H](CO)C(=O)N[C@@H](CCC(N)=O)C(=O)N[C@@H](CCC(N)=O)C(=O)N[C@H](C(=O)N[C@@H](Cc1ccccc1)C(=O)N[C@]1(C)CCCCCC/C=C/CCC[C@@](C)(C(=O)N[C@@H](CCC(N)=O)C(=O)N[C@@H](CC(N)=O)C(N)=O)NC(=O)[C@H](CC(C)C)NC(=O)[C@H](CC(C)C)NC(=O)[C@H](CCCCN)NC(=O)[C@H](Cc2c[nH]c3ccccc23)NC(=O)[C@H](CC(C)C)NC(=O)[C@H](CC(N)=O)NC1=O)[C@@H](C)O (Ac-QSQQTF[R8]NLWKLL[S5]QN-NH2; staple (E) 7-14) | 10.2 | –
– | CC(=O)N[C@@H](CCCNC(=N)N)C(=O)N[C@@H](CO)C(=O)N[C@@H](CCC(N)=O)C(=O)N[C@@H](CCC(=O)O)C(=O)N[C@@H](CCCNC(=N)N)C(=O)N[C@@H](Cc1ccccc1)C(=O)N[C@]1(C)CCCCCC/C=C/CCC[C@@](C)(C(=O)N[C@@H](CCC(=O)O)C(=O)N[C@@H](CC(N)=O)C(N)=O)NC(=O)[C@H](CC(C)C)NC(=O)[C@H](CCCNC(=N)N)NC(=O)[C@H](CCCNC(=N)N)NC(=O)[C@H](Cc2c[nH]c3ccccc23)NC(=O)[C@H](CC(C)C)NC(=O)[C@H](CCCNC(=N)N)NC1=O (Ac-RSQERF[R8]RLWRRL[S5]EN-NH2; staple (E) 7-14) | 7.2 | –
– | CC(=O)N[C@@H](CC(C)C)C(=O)N[C@@H](CCCNC(=N)N)C(=O)N[C@@H](CCCNC(=N)N)C(=O)N[C@@H](CCC(=O)O)C(=O)N[C@H](C(=O)N[C@@H](Cc1ccccc1)C(=O)N[C@]1(C)CCCCCC/C=C/CCC[C@@](C)(C(=O)N[C@@H](CCCNC(=N)N)C(=O)N[C@@H](CCCNC(=N)N)C(N)=O)NC(=O)[C@H](CC(C)C)NC(=O)[C@H](CCCNC(=N)N)NC(=O)[C@H](CCCCN)NC(=O)[C@H](Cc2c[nH]c3ccccc23)NC(=O)[C@H](CC(C)C)NC(=O)[C@H](CC(=O)O)NC1=O)[C@@H](C)O (Ac-LRRETF[R8]DLWKRL[S5]RR-NH2; staple (E) 7-14) | 3.2 | –
– | CCN(CC)c1ccc2c(-c3ccc(S(=O)(=O)NCCC(=O)N[C@@H](CC(C)C)C(=O)N[C@@H](CO)C(=O)N[C@@H](CCC(N)=O)C(=O)N[C@@H](CCC(=O)O)C(=O)N[C@H](C(=O)N[C@@H](Cc4ccccc4)C(=O)N[C@]4(C)CCCCCC/C=C/CCC[C@@](C)(C(=O)N[C@@H](CCCNC(=N)N)C(=O)N[C@@H](CCCNC(=N)N)C(N)=O)NC(=O)[C@H](CC(C)C)NC(=O)[C@H](CCCNC(=N)N)NC(=O)[C@H](CCCNC(=N)N)NC(=O)[C@H](Cc5c[nH]c6ccccc56)NC(=O)[C@H](CC(C)C)NC(=O)[C@H](CCCNC(=N)N)NC4=O)[C@@H](C)O)cc3S(=O)(=O)[O-])c3ccc(=[N+](CC)CC)cc-3oc2c1 ({X1-βAla}-LSQETF[R8]RLWRRL[S5]RR-NH2; staple (E) 7-14) | – | 284
– | CC(=O)N[C@@H](CC(C)C)C(=O)N[C@@H](CO)C(=O)N[C@@H](CCC(N)=O)C(=O)N[C@@H](CCC(=O)O)C(=O)N[C@H](C(=O)N[C@@H](C)C(=O)N[C@]1(C)CCCCCC/C=C/CCC[C@@](C)(C(=O)N[C@@H](CCCNC(=N)N)C(=O)N[C@@H](CCCNC(=N)N)C(N)=O)NC(=O)[C@H](CC(C)C)NC(=O)[C@H](CCCNC(=N)N)NC(=O)[C@H](CCCNC(=N)N)NC(=O)[C@H](Cc2c[nH]c3ccccc23)NC(=O)[C@H](CC(C)C)NC(=O)[C@H](CCCNC(=N)N)NC1=O)[C@@H](C)O (Ac-LSQETA[R8]RLWRRL[S5]RR-NH2; staple (E) 7-14) | 4.8 | –
13.8 | CCN(CC)c1ccc2c(-c3ccc(S(=O)(=O)NCCC(=O)N[C@@H](CCCNC(=N)N)C(=O)N[C@@H](CO)C(=O)N[C@@H](CCC(N)=O)C(=O)N[C@@H](CCC(=O)O)C(=O)N[C@@H](CCCNC(=N)N)C(=O)N[C@@H](Cc4ccccc4)C(=O)N[C@]4(C)CCCCCC/C=C/CCC[C@@](C)(C(=O)N[C@@H](CCC(=O)O)C(=O)N[C@@H](CC(N)=O)C(N)=O)NC(=O)[C@H](CC(C)C)NC(=O)[C@H](CCCNC(=N)N)NC(=O)[C@H](CCCNC(=N)N)NC(=O)[C@H](Cc5c[nH]c6ccccc56)NC(=O)[C@H](CC(C)C)NC(=O)[C@H](CCCNC(=N)N)NC4=O)cc3S(=O)(=O)[O-])c3ccc(=[N+](CC)CC)cc-3oc2c1 ({X1-βAla}-RSQERF[R8]RLWRRL[S5]EN-NH2; staple (E) 7-14) | – | 69
51.9 | CCN(CC)c1ccc2c(-c3ccc(S(=O)(=O)NCCC(=O)N[C@@H](CCC(N)=O)C(=O)N[C@@H](CO)C(=O)N[C@@H](CCC(N)=O)C(=O)N[C@@H](CCC(N)=O)C(=O)N[C@H](C(=O)N[C@@H](Cc4ccccc4)C(=O)N[C@]4(C)CCCCCC/C=C/CCC[C@@](C)(C(=O)N[C@@H](CCC(N)=O)C(=O)N[C@@H](CC(N)=O)C(N)=O)NC(=O)[C@H](CC(C)C)NC(=O)[C@H](CC(C)C)NC(=O)[C@H](CCCCN)NC(=O)[C@H](Cc5c[nH]c6ccccc56)NC(=O)[C@H](CC(C)C)NC(=O)[C@H](CC(N)=O)NC4=O)[C@@H](C)O)cc3S(=O)(=O)[O-])c3ccc(=[N+](CC)CC)cc-3oc2c1 ({X1-βAla}-QSQQTF[R8]NLWKLL[S5]QN-NH2; staple (E) 7-14) | – | 256 to 260

SMILES | Drug uptake [2] [%] | EC50 (SJSA-1) [µM] | Drug uptake [1] [nM]
CCN(CC)c1ccc2c(-c3ccc(S(=O)(=O)NCCC(=O)N[C@@H](CC(C)C)C(=O)N[C@@H](CO)C(=O)N[C@@H](CCC(N)=O)C(=O)N[C@@H](CCC(=O)O)C(=O)N[C@H](C(=O)N[C@@H](Cc4ccccc4)C(=O)N[C@]4(C)CCCCCC/C=C/CCC[C@@](C)(C(=O)N[C@@H](CCC(=O)O)C(=O)N[C@@H](CC(N)=O)C(N)=O)NC(=O)[C@H](CC(C)C)NC(=O)[C@H](CC(C)C)NC(=O)[C@H](CCCCN)NC(=O)[C@H](Cc5c[nH]c6ccccc56)NC(=O)[C@H](CC(C)C)NC(=O)[C@H](CC(=O)O)NC4=O)[C@@H](C)O)cc3S(=O)(=O)[O-])c3ccc(=[N+](CC)CC)cc-3oc2c1 | 12.4 | – | 62
